From US9212173B2, “Pyrazole aminopyrimidine derivatives as LRRK2 modulators” (Genentech, Inc., priority 2012, dated 2015)

Target: LRRK2 (Homo sapiens (Human), UniProt Q5S007, G2019S)
Test: In Vitro LRRK2 Assay (LRRK2 Ki)
Format: biochemical
Description: In Vitro LRRK2 Lanthascreen Binding Assay
This assay was used to determine a compound's potency in inhibiting activity of LRRK2 by determining, Kiapp, IC50, or percent inhibition values.
Binding of the Alexa Fluor® “tracer” to a kinase is detected by addition of a Eu-labeled anti-GST antibody.
12 pt curve. […] Stamp 5 ul to assay plate. Final top test concentration 100 uM
In Reaction Buffer, 5 ul of DMSO (3%) was added to total and blank wells and 5 ul of Eu-labeled anti-GST antibody (6 nM) was added to blank wells. Add 5 ul LRRK2 (30 nM)/Eu-labeled anti-GST antibody (6 nM) mix to compound and total wells.
Incubate plates at room temperature for 1 hour on a plate shaker (gentle shaking). Read on Perkin Elmer EnVision reader HTRF protocol
Subtract mean background values from all data points. Calculate % of control for each test value. Plot % of control vs Compound concentration. Calculate Ki Value (xlfit curve fitting-Morrison equation). Results expressed as a Ki in μM. Equation for Ki: Y=V0*(1−((x+Ki*(1+S/Km)+Et)/(2*Et)−(((x+Ki*(1+S/Km)+Et)^2−(4*Et*x))^0.5)/(2*Et)))
This assay was used to determine a compound's potency in inhibiting activity of LRRK2 by determining, Kiapp, IC50, or percent inhibition values. In a polypropylene plate, LRRK2, fluorescently-labeled peptide substrate, ATP and test compound were incubated together. Using a LabChip 3000 (Caliper Life Sciences), after the reaction the substrate was separated by capillary electrophoresis into two populations: phosphorylated and unphosphorylated. The relative amounts of each were quantitated by fluorescence intensity. LRRK2 Ki was determined according to the equation: Y=V0*(1−((x+Ki*(1+S/Km)+Et)/(2*Et)−(((x+Ki*(1+S/Km)+Et)^2−(4*Et*x))^0.5)/(2*Et))).
Ki values in Table 4 and elsewhere herein are shown in μM.
For serial dilutions, 34.6 μl DMSO was added to columns 3-24.
In Complete Reaction Buffer, substrate was diluted to 4 μM. Equal volumes of Complete Reaction Buffer and 4 μM substrate were combined to obtain the blank. Equal volumes of Complete Reaction Buffer and 4 μM substrate were combined and to the combined solution was added 2× final LRRK2 concentration.
To a 50 μl polypropylene plate, 5 μl/well buffer/substrate was added by hand to Blank wells. A Biomek FX was used to start the kinase reaction (“PLK SAR 23 ATP”). The following were added to the appropriate wells:
The plate was incubated for 2 hours in the dark. Biomek FX was used to stop the kinase reaction (“PLK Stop”), and 10 μl/well Stop solution was added to the Assay Plate. Results were read on the LabChip 3000.
The LabChip 3000 was run using the job “LRRK2 IC50” with the following job settings: […]

Chain of LRRK2 (Q5S007 whole entry G2019S): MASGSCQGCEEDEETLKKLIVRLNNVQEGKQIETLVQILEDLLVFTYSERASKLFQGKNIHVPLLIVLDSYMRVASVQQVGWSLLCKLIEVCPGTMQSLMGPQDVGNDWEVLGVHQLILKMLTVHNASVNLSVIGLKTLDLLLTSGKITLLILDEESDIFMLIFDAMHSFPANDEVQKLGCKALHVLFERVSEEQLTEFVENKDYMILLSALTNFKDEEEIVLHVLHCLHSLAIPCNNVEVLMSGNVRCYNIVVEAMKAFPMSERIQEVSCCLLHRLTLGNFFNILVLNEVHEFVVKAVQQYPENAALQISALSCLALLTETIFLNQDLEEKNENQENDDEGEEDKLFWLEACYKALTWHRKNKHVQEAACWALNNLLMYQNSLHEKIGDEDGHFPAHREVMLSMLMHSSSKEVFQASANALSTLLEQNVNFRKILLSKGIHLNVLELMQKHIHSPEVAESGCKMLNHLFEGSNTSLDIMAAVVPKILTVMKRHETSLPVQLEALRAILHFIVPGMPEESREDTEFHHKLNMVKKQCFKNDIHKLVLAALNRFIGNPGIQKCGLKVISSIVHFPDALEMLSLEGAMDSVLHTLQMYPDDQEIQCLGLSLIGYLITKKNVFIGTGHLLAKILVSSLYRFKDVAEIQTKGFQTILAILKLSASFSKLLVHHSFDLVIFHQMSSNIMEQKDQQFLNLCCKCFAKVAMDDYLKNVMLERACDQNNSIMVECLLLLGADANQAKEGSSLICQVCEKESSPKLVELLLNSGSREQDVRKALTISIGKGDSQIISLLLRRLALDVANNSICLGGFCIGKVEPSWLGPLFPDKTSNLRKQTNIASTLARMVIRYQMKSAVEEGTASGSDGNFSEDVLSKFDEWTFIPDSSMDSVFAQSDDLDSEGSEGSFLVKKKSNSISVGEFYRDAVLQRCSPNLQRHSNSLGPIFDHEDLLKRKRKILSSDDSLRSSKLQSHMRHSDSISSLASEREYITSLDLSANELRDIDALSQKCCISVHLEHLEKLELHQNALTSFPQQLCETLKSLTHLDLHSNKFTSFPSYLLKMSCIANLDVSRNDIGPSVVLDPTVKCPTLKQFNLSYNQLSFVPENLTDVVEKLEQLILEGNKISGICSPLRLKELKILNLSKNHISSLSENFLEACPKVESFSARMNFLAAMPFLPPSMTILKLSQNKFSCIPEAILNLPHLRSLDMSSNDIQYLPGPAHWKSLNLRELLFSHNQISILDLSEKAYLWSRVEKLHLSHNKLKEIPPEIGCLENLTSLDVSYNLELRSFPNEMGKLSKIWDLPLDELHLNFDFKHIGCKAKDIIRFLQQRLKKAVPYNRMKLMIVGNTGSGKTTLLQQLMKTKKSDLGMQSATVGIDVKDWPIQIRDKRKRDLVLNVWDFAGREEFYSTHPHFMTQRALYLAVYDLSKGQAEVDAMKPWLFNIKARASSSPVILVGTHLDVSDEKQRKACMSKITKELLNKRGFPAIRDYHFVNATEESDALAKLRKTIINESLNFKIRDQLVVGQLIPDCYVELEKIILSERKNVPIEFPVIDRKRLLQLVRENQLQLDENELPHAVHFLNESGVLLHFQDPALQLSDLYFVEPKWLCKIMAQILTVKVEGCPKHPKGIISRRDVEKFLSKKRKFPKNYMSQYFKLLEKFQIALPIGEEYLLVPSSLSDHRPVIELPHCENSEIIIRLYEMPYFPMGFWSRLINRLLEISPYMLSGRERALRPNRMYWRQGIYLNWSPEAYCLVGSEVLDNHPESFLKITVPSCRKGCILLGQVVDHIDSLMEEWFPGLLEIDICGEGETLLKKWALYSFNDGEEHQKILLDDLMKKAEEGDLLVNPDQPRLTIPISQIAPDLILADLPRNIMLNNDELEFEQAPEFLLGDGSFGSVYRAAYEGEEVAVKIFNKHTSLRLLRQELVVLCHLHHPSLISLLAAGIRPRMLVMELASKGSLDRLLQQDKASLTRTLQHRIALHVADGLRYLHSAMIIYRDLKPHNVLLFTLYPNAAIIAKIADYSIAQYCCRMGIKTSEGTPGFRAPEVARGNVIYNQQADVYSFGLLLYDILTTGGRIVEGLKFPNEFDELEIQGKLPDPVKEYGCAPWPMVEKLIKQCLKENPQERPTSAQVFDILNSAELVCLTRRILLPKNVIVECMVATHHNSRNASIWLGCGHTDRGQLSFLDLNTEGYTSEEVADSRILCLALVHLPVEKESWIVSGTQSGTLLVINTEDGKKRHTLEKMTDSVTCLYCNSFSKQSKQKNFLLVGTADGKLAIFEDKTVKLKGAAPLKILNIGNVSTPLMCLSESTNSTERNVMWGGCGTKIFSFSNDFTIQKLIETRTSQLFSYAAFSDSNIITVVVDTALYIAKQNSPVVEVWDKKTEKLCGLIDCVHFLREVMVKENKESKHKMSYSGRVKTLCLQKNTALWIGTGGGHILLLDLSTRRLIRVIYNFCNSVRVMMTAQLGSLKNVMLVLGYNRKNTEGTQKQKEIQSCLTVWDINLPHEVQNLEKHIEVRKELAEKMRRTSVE

| Ki | Compound |
| --- | --- |
| 8.6 nM | CNc1nc(Nc2cc(C(C)(C)C#N)nn2C)ncc1C(F)(F)F [Example 45, 2-methyl-2-(1-methyl-5-((4-(methylamino)-5-(trifluoromethyl)pyrimidin-2-yl)amino)-1H-pyrazol-3-yl)propanenitrile] |
| 3 nM | Cc1nn(C(C)(C)C#N)cc1Nc1ncc(C#N)c(NC2CC2)n1 [Example 46, 2-((1-(2-cyanopropan-2-yl)-3-methyl-1H-pyrazol-4-yl)amino)-4-(cyclopropylamino)pyrimidine-5-carbonitrile] |
| 24.5 nM | CCNc1nc(Nc2cc(C#N)nn2C)ncc1C(F)(F)F [Example 50, 5-((4-(ethylamino)-5-(trifluoromethyl)pyrimidin-2-yl)amino)-1-methyl-1H-pyrazole-3-carbonitrile] |
